From paper PMC8222394 (Nature Communications, 2021)
Values joined by “and” are separate entries in the source; they are usually repeats but may differ in a detail not shown here. Equal entries are not always repeated. Where two headings read alike, the source gives them in different places.

Tests used:
[1] = tested on: DCAF1; assay: Cellular thermal shift assay, DCAF1; assay type: binding, human; settings: Beas-2B, HFG 3 μM 1 h
[2] = tested on: TMPRSS2
[3] = cited from earlier work
[4] = tested on: TMPRSS2; settings: Beas-2B; for TMPRSS2 densitometry: Fig. 6A, 6 h, listed as HFG
[5] = tested on: TMPRSS2-V5; assay type: cell-based, human
[6] = tested on: ST14; assay: RT-qPCR of ST14 mRNA in Caco-2 cells; assay type: cell-based, human; settings: Fig. S3B, Caco-2, 6 hr, relative to Veh
[7] = tested on: SARS-CoV-2 (wildtype-USA-WA1/2020); assay type: cell-based
[8] = tested on: TMPRSS2; settings: Calu-3 cells
[9] = tested on: E-cadherin; assay: Immunoblot of E-cadherin in Caco-2 cells; assay type: cell-based, human
[10] = tested on: DCAF1; assay: qPCR of DCAF1 gene expression in Caco-2 cells; assay type: cell-based, human
[11] = tested on: TMPRSS2; assay: In vitro transcription and translation proline treatment assay; assay type: biochemical; settings: with or without L-proline supplementation
Method: TMPRSS2 constructs were synthesized in vitro using TnT Coupled Reticulocyte Lysate System (Promega) following manufacturer’s protocol. HFG plus proline assays were conducted using in vitro transcription and translation kit with free amino acids diluted 5-fold and proline supplemented at indicated concentrations. Following synthesis, products were analyzed via immunoblotting.

[12] = target: T1, TMPRSS2 (Homo sapiens, UniProt O15393); assay: TMPRSS2 activity assay (Boc-Gln-Ala-Arg-MCA fluorescence); assay type: biochemical; parameters: purchased LSBio; settings: for TMPRSS2 activity (FigS9 source data): replicates
Method: Fluorescence (380-15 nm excitation/470-20 nm emission) of the samples was monitored over 4:45 h and the slope of the curves was calculated by linear regression analysis and used as output for TMPRSS2 activity.
Target sequence in this assay (O15393 106-492): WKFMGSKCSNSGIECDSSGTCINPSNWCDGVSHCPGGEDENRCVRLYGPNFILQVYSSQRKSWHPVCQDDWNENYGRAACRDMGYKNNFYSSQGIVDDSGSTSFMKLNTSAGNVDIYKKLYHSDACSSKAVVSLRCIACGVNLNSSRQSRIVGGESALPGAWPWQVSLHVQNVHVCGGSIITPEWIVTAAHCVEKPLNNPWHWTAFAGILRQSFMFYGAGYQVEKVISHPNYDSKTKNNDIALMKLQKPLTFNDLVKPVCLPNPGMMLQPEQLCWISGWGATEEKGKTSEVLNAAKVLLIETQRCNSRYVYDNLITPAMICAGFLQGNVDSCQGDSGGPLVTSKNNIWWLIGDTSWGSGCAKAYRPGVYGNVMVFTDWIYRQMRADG

[13] = tested on: Ace2-GFP; assay: Immunoblot of Ace2-GFP in Beas-2B cells; assay type: cell-based
[14] = human, 3.5 mg/day Oral; cited from earlier work
[15] = in vitro; settings: human
[16] = tested on: SARS-CoV-2 pseudovirus; assay: microbe, parasite or virus in culture; assay type: cell-based; settings: Severe acute respiratory syndrome-related coronavirus
[17] = tested on: TMPRSS2; settings: for TMPRSS2 densitometry (relative to 0): Fig. 4C, Caco-2, 18 h; for TMPRSS2 densitometry (relative to 0) / TMPRSS2 densitometry, time course: listed as HFG; for TMPRSS2 densitometry, time course: Fig. 4D, Caco-2, 3 µM
[18] = target: T1, TMPRSS2; settings: Beas-2B, HFG 3 μM 1 h
Target sequence in this assay (O15393 whole entry): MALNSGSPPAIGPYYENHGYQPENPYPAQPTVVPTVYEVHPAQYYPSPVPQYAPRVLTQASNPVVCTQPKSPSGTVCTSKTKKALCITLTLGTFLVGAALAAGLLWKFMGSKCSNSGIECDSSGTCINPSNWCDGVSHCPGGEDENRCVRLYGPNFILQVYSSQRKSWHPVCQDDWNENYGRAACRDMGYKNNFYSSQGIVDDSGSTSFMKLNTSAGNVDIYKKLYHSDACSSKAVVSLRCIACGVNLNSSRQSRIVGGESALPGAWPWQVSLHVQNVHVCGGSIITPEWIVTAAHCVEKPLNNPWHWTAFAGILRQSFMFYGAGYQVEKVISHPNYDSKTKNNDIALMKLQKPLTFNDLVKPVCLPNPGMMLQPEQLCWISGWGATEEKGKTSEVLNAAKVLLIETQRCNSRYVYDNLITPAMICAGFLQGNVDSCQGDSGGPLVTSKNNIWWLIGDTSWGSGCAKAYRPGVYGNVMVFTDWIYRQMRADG

[19] = tested on: SARS-CoV-2 pseudovirus; assay: Cell-based proline treatment, pseudoviral entry; settings: for pseudoviral entry relative to Veh: replicates, listed as HFG
[20] = tested on: SARS-CoV-2 pseudovirus; assay type: cell-based
[21] = tested on: TMPRSS2; settings: Caco-2 cells, 18 h treatment then washout
[22] = tested on: SARS-CoV-2 pseudovirus; assay type: cell-based; remark: listed apart in the source

O=C(CC1NCCCC1O)Cn1cnc2cc(Br)c(Cl)cc2c1=O (stereo not drawn) [Halofuginone]
binding to DCAF1 [1]: does not bind
TMPRSS2 transcription ([2]; Caco-2 cells): modestly increased
TMPRSS2 mRNA expression, Set1 ([2]; Fig. S3B, Caco-2, 6 hr, relative to Veh): 1.663 and 2.342 and 1.988 and 2.135
toxicity profile [3]: very mild toxicity profile and is generally well tolerated
effect on TMPRSS2 protein levels in DCAF1-knockdown cells ([4]; DCAF1 siRNA): abrogated
TMPRSS2 expression in control knockdown cells ([4]; control siRNA): reduced TMPRSS2 expression
TMPRSS2 densitometry ([4]; Ctrl siRNA, HFG 100 nM): 0.643 and 0.6245 and 0.6321
TMPRSS2 densitometry ([4]; Ctrl siRNA, HFG 300 nM): 0.4952 and 0.3574 and 0.5989
TMPRSS2 densitometry ([4]; DCAF1 KD 1, HFG 100 nM): 1.233 and 1.219 and 1.274
TMPRSS2 densitometry ([4]; DCAF1 KD 1, HFG 300 nM): 1.254 and 1.215 and 1.261
TMPRSS2 densitometry ([4]; DCAF1 KD 2, HFG 100 nM): 1.233 and 1.237 and 1.31
TMPRSS2 densitometry ([4]; DCAF1 KD 2, HFG 300 nM): 1.246 and 1.239 and 1.116
TMPRSS2-V5 versus LacZ-V5 expression [5]: selectively reduced TMPRSS2 expression
ST14 mRNA expression [6]: 0.847 and 0.804 and 0.672 and 1.192
reduction of SARS-CoV-2 viral infection [7]: highly effective in reducing SARS-CoV-2 viral infection
TMPRSS2 protein levels [8]: qualitatively similar decreases
E-cadherin protein [9]: unaffected
DCAF1 gene expression ([10]; Caco-2, 3µM): do not affect DCAF1 gene expression
relative DCAF1 gene expression ([10]; block Vehicle/HFG/HHT, replicates, listed as HFG): 1.066 and 1.83 and 0.845 and 0.576
synthesis of TMPRSS2 [11]: can inhibit the in vitro and in vivo synthesis of TMPRSS2 in a proline-dependent fashion
TMPRSS2 activity (FigS9 source data) ([12]; 0.08 µM): 0.4091 and 0.4156 and 0.3953 and 0.4416
TMPRSS2 activity (FigS9 source data) ([12]; 0.4 µM): 0.4106 and 0.359 and 0.3929 and 0.3576
TMPRSS2 activity (FigS9 source data) ([12]; 2 µM): 0.4305 and 0.3555 and 0.3601 and 0.3121
TMPRSS2 catalytic activity ([12]; recombinant TMPRSS2, preliminary): does not inhibit TMPRSS2 catalytic activity
Ace2 protein [13]: unaffected
Cmax [14]: 7 nM
CC50 [15]: ~5.54 µM
IC50 ([16]; Caco-2, read-out: In vitro IC50 (viral entry)): ~0.03 µM
IC50 ([16]; Caco-2, read-out: concentration for 50% reduction in the level of pseudoviral entry): ~0.3 µM
time to substantial reduction in TMPRSS2 expression ([17]; Caco-2 cells, 3 µM): within three hours
endogenous TMPRSS2 protein expression ([17]; Caco-2 cells, 18 h): marked reduction
TMPRSS2 densitometry (relative to 0) ([17]; head 1 (unit not given)): 0.1807 and 0.1069
TMPRSS2 densitometry (relative to 0) ([17]; head 3): 0.1607 and 0.08785
TMPRSS2 densitometry, time course ([17]; time head 3): 0.6876 and 0.6922 and 0.7386
TMPRSS2 densitometry, time course ([17]; time head 6): 0.2973 and 0.5193 and 0.5743
TMPRSS2 densitometry, time course ([17]; time head 24): 0.2861 and 0.2479 and 0.396
binding to TMPRSS2 [18]: does not bind
pseudoviral entry relative to Veh ([19]; concentration 0.0137 (unit not given), 0mM Proline): 152.697 and 134.687 and 120.427 and 97.7116 and 89.0983 and 90.8546 and 80.2015 and 88.7016
pseudoviral entry relative to Veh ([19]; concentration 0.0137 (unit not given), 1mM Proline): 78.8997 and 119.296 and 92.4783 and 61.8538 and 121.318 and 103.717 and 95.0292 and 87.0468
pseudoviral entry relative to Veh ([19]; concentration 0.0137 (unit not given), 5mM Proline): 83.8659 and 82.9011 and 90.5346 and 126.552 and 83.6269 and 86.2224 and 92.3835 and 76.5378
pseudoviral entry relative to Veh ([19]; concentration 0.0412 (unit not given), 0mM Proline): 135.074 and 83.8509 and 103.144 and 111.461 and 116.846 and 105.51 and 105.878 and 113.705
pseudoviral entry relative to Veh ([19]; concentration 0.0412 (unit not given), 1mM Proline): 110.112 and 97.4283 and 87.7103 and 127.69 and 97.5882 and 67.824 and 78.2944 and 117.716
pseudoviral entry relative to Veh ([19]; concentration 0.0412 (unit not given), 5mM Proline): 82.5299 and 121.265 and 73.6811 and 85.0503 and 103.755 and 88.171 and 83.5837 and 102.919
pseudoviral entry relative to Veh ([19]; concentration 0.123 (unit not given), 0mM Proline): 99.7343 and 63.0974 and 80.3685 and 70.3519 and 79.4198 and 74.6305 and 82.2505 and 58.3341
pseudoviral entry relative to Veh ([19]; concentration 0.123 (unit not given), 1mM Proline): 81.4705 and 100.257 and 127.468 and 88.584 and 113.575 and 85.4328 and 91.2395 and 78.3868
pseudoviral entry relative to Veh ([19]; concentration 0.123 (unit not given), 5mM Proline): 62.4818 and 82.8199 and 109.855 and 101.172 and 80.2202 and 78.6211 and 92.2054 and 82.6012
pseudoviral entry relative to Veh ([19]; concentration 0.37 (unit not given), 0mM Proline): 52.2274 and 41.9717 and 59.924 and 47.6381 and 40.7991 and 39.6967 and 44.7511 and 47.5163
pseudoviral entry relative to Veh ([19]; concentration 0.37 (unit not given), 1mM Proline): 63.0963 and 89.0802 and 95.5491 and 76.9085 and 75.5967 and 54.6206 and 124.078 and 94.9093
pseudoviral entry relative to Veh ([19]; concentration 0.37 (unit not given), 5mM Proline): 84.0152 and 111.59 and 116.82 and 90.6831 and 82.0915 and 111.563 and 85.8373 and 95.0829
protection against pseudoviral entry with proline augmentation ([19]; proline added to cell culture media): ablated
pseudoviral luciferase reporter signal [20]: dose-dependent reduction of the luciferase signal
signal relative to Control (FigS7 source data) [20]: 0.6435 and 0.5799 and 0.5278
recovery of TMPRSS2 levels after drug removal [21]: returned close to baseline roughly six hours after drug removal
pseudoviral GFP expression [22]: markedly reduced levels of GFP expression
